How the values were obtained:
[1] = target: T1, recombinant human PSMA (rhPSMA) (Homo sapiens, UniProt Q04609); experiment: Naaladase assay (fluorescence-based Naaladase activity inhibition); assay type: biochemical; settings: rhPSMA 0.4 μg/mL, substrate N-Acetyl-Asp-Glu 40 μM, 37° C. one hour
T1 construct: purchased Sino Biological
Experimental: Naaladase activity inhibition was determined using a fluorescence-based assay. Briefly, the solution containing the substrate N-Acetyl-Asp-Glu (Sigma-Aldrich) at 40 μM and the compound at concentrations from 0.15 nM to 1000 nM was mixed at equal volume with recombinant human PSMA (rhPSMA, Sino Biological) at 0.4 μg/mL, in assay buffer (50 mM HEPES, 100 mM NaCl, pH 7.5). The enzymatic reaction was proceeded by incubation at 37° C. for one hour and then stopped by heating at 95° C. for 5 minutes. A solution of 15 mM ortho-phthaldialdehyde (Sigma-Aldrich) was added to all vials and incubated for 10 min at ambient temperature. The reaction solutions were loaded onto a 96-well flat clear bottom black microplates (Corning) and read at excitation and emission wavelengths of 330 and 450 nm, respectively, using a microplate reader (Tecan). The data were analyzed by a one-site total binding regression algorithm of GraphPad Prism (GraphPad Software).

LNCaP cells = experiment: Cell uptake assay of 177Lu-labeled compound; assay type: cell-based; settings: for Membrane (%): cell membrane fraction; for Intracellular (%): intracellular fraction
Experimental: LNCaP (ATCC) cells were cultured in RPMI 1640 medium (Gibco) containing 10% fetal bovine serum (FBS) (Gibco), in 5% carbon dioxide (CO2), at 37.0° C. in a humidified incubator. 2×10^5 LNCaP cells/well were seeded in a 24-well plate the day before experiment. 7.4 KBq (200 nCi) of ^177Lu-labeled compound was added into each well, and then incubated in 37° C., 5% CO2 incubator for varying durations. At each time point, the supernatant, cell membrane and intracellular fractions were collected. The cell membrane fraction was recovered by incubating cells with buffer containing 50 mM glycine and 100 mM NaCl, pH 2.7 for 10 minutes at 37° C., while the intracellular fraction was recovered from cells treated with 1M NaOH. Activity of ^177Lu-labelled compound in every component was detected by gamma counter.

T1 sequence (Q04609 whole entry): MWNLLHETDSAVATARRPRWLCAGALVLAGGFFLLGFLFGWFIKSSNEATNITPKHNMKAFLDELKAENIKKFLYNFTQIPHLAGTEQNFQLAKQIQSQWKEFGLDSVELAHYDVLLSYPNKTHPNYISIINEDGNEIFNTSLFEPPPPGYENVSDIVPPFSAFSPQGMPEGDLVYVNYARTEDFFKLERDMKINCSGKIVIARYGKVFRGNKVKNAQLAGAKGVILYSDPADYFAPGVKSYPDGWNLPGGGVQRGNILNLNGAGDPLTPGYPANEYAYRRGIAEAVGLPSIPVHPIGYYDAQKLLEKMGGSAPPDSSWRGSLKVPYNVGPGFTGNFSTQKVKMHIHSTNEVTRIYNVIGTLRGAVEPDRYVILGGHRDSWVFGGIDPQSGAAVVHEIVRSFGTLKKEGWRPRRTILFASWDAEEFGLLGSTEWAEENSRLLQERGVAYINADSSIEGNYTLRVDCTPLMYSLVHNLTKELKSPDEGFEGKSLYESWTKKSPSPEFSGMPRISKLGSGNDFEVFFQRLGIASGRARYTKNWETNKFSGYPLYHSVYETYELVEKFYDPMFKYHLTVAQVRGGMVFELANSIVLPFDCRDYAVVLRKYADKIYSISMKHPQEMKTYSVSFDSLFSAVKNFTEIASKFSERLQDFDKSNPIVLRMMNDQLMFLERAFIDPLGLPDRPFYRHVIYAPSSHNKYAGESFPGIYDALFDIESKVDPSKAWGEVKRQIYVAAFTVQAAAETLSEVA

Row | SMILES | IC50 [1] | Membrane (%) (LNCaP cells; 1 hr) | Membrane (%) (LNCaP cells; 4 hr) | Membrane (%) (LNCaP cells; 24 hr) | Intracellular (%) (LNCaP cells; 1 hr) | Intracellular (%) (LNCaP cells; 4 hr) | Intracellular (%) (LNCaP cells; 24 hr)
1 | O=C(O)CCC[C@H](NC(=O)N[C@@H](CCCCNC(=O)[C@H](Cc1c2ccccc2cc2ccccc12)Nc1c(Nc2ccc3c(c2)CCN(C(=O)CN2CCN(CC(=O)O)CCN(CC(=O)O)CCN(CC(=O)O)CC2)C3)c(=O)c1=O)C(=O)O)C(=O)O [E14] | 1.7 nM | 9.7% | 14.8% | 12.9% | 7.9% | 25.1% | 49.5%
2 | O=C(O)CCC[C@H](NC(=O)N[C@@H](CCCCNC(=O)[C@H](Cc1c2ccccc2cc2ccccc12)Nc1c(NC23CCC(NC(=O)CN4CCN(CC(=O)O)CCN(CC(=O)O)CCN(CC(=O)O)CC4)(CC2)CC3)c(=O)c1=O)C(=O)O)C(=O)O [E4, (S)-2-(3-((S)-5-((S)-3-(anthracen-9-yl)-2-((3,4-dioxo-2-((4-(2-(4,7,10-tris(carboxymethyl)-1,4,7,10-tetraazacyclododecan-1-yl)acetamido)bicyclo[2.2.2]octan-1-yl)amino)cyclobut-1-en-1-yl)amino)propanamido)-1-carboxypentyl)ureido)hexanedioic acid] | 1.4 nM | 6.4% | 12.8% | 13.0% | 7.2% | 23.0% | 57.4%
3 | O=C(O)CC[C@H](NC(=O)N[C@@H](CCCCNC(=O)[C@H](Cc1ccc2ccccc2c1)Nc1c(NC23CCC(NC(=O)CN4CCN(CC(=O)O)CCN(CC(=O)O)CCN(CC(=O)O)CC4)(CC2)CC3)c(=O)c1=O)C(=O)O)C(=O)O [E6, (((S)-1-carboxy-5-((S)-2-((3,4-dioxo-2-((4-(2-(4,7,10-tris(carboxymethyl)-1,4,7,10-tetraazacyclododecan-1-yl)acetamido)bicyclo[2.2.2]octan-1-yl)amino)cyclobut-1-en-1-yl)amino)-3-(naphthalen-2-yl)propanamido)pentyl)carbamoyl)-L-glutamic acid] | 1.5 nM | 6.3% | 10.1% | 11.6% | 5.7% | 18.9% | 45.5%
4 | O=C(O)CN1CCN(CC(=O)O)CCN(CC(=O)NCC23CCC(Nc4c(N[C@@H](Cc5c6ccccc6cc6ccccc56)C(=O)NCCCC[C@H](NC(=O)N[C@@H](CNC(=O)C(=O)O)C(=O)O)C(=O)O)c(=O)c4=O)(CC2)CC3)CCN(CC(=O)O)CC1 [E3, (4S,8S,15S)-16-(anthracen-9-yl)-15-((3,4-dioxo-2-((4-((2-(4,7,10-tris(carboxymethyl)-1,4,7,10-tetraazacyclododecan-1-yl)acetamido)methyl)bicyclo[2.2.2]octan-1-yl)amino)cyclobut-1-en-1-yl)amino)-1,6,14-trioxo-2,5,7,13-tetraazahexadecane-1,4,8-tricarboxylic acid] | 1.2 nM | 4.0% | 6.8% | 8.8% | 14.7% | 44.2% | 73.3%
5 | O=C(O)CC[C@H](NC(=O)N[C@@H](CCCCNC(=O)[C@H](Cc1c2ccccc2cc2ccccc12)Nc1c(NC23CCC(NC(=O)CN4CCN(CC(=O)O)CCN(CC(=O)O)CCN(CC(=O)O)CC4)(CC2)CC3)c(=O)c1=O)C(=O)O)C(=O)O [E15] | 0.8 nM | 14.1% | 27.3% | 23.8% | 9.6% | 30.4% | 58.4%
6 | O=C(O)CN1CCN(CC(=O)O)CCN(Cc2nnc(C34CCC(Nc5c(N[C@@H](Cc6c7ccccc7cc7ccccc67)C(=O)NCCCC[C@H](NC(=O)N[C@@H](CNC(=O)C(=O)O)C(=O)O)C(=O)O)c(=O)c5=O)(CC3)CC4)o2)CCN(CC(=O)O)CC1 [E9] | 1 nM | 5.0% | 9.7% | 10.1% | 12.4% | 40.4% | 72.0%
7 | O=C(O)CCC[C@H](NC(=O)N[C@@H](CCNC(=O)[C@H](Cc1c2ccccc2cc2ccccc12)NC(=O)[C@H]1CC[C@H](CNC(=O)CN2CCN(CC(=O)O)CCN(CC(=O)O)CCN(CC(=O)O)CC2)CC1)C(=O)O)C(=O)O [HTK03149, reference compound] | 1.6 nM | 2.9% | 3.8% | 5.7% | 2.8% | 7.4% | 19.3%
8 | O=C(O)CC[C@H](NC(=O)N[C@@H](CCCCNC(=O)[C@H](Cc1ccc2ccccc2c1)NC(=O)[C@H]1CC[C@H](CNC(=O)CN2CCN(CC(=O)O)CCN(CC(=O)O)CCN(CC(=O)O)CC2)CC1)C(=O)O)C(=O)O [PSMA-617, reference compound] | 2.4 nM | 2.1% | 4.8% | 4.7% | 3.0% | 9.5% | 22.4%
9 | O=C(O)CN1CCN(CC(=O)O)CCN(CC(=O)N[C@H]2CC[C@H](Nc3c(N[C@@H](Cc4c5ccccc5cc5ccccc45)C(=O)NCCCC[C@H](NC(=O)N[C@@H](CNC(=O)C(=O)O)C(=O)O)C(=O)O)c(=O)c3=O)CC2)CCN(CC(=O)O)CC1 [E12] | 0.9 nM | 11.1% | 18.0% | 12.7% | 7.3% | 24.3% | 41.4%
10 | O=C(O)CC[C@H](NC(=O)N[C@@H](CCCCNC(=O)[C@H](Cc1ccc2ccccc2c1)Nc1c(NC23CCC(CNC(=O)CN4CCN(CC(=O)O)CCN(CC(=O)O)CCN(CC(=O)O)CC4)(CC2)CC3)c(=O)c1=O)C(=O)O)C(=O)O [E1, (((S)-1-carboxy-5-((S)-2-((3,4-dioxo-2-((4-((2-(4,7,10-tris(carboxymethyl)-1,4,7,10-tetraazacyclododecan-1-yl)acetamido)methyl)bicyclo[2.2.2]octan-1-yl)amino)cyclobut-1-en-1-yl)amino)-3-(naphthalen-2-yl)propanamido)pentyl)carbamoyl)-L-glutamic acid] | 3.3 nM | 3.4% | 5.6% | 7.1% | 3.0% | 9.9% | 24.8%
11 | O=C(O)CCC[C@H](NC(=O)N[C@@H](CCCCNC(=O)[C@H](Cc1c2ccccc2cc2ccccc12)Nc1c(Nc2ccc3c(c2)CN(C(=O)CN2CCN(CC(=O)O)CCN(CC(=O)O)CCN(CC(=O)O)CC2)CC3)c(=O)c1=O)C(=O)O)C(=O)O [E13] | 1.7 nM | 8.3% | 13.8% | 7.1% | 6.9% | 23.0% | 43.3%
12 | O=C(O)CN1CCN(CC(=O)O)CCN(Cc2nnc([C@H]3CC[C@H](Nc4c(N[C@@H](Cc5c6ccccc6cc6ccccc56)C(=O)NCCCC[C@H](NC(=O)N[C@@H](CNC(=O)C(=O)O)C(=O)O)C(=O)O)c(=O)c4=O)CC3)o2)CCN(CC(=O)O)CC1 [E10] | 1.7 nM | 7.1% | 10.5% | 11.0% | 16.9% | 50.2% | 76.7%
13 | O=C(O)CN1CCN(CC(=O)O)CCN(CC(=O)NC23CCC(Nc4c(N[C@@H](Cc5c6ccccc6cc6ccccc56)C(=O)NCCCC[C@H](NC(=O)N[C@@H](CNC(=O)C(=O)O)C(=O)O)C(=O)O)c(=O)c4=O)(CC2)CC3)CCN(CC(=O)O)CC1 [E8] | 1.6 nM | 4.8% | 12.8% | 7.3% | 11.5% | 39.0% | 77.9%
